Data as given in publication PMC2790557 (Biochemistry, 2009).
pIC50: −log10 of the molar value.

Target: CK2 (casein kinase II)

## OC[C@H]1O[C@@H](n2cnc3cc(Cl)c(Cl)cc32)[C@H](O)[C@@H]1O [DRB, 5,6-Dichloro-1-(β-D-ribofuranosyl)benzimidazole]
  pIC50: ~5.00
